Laboratory results from patent US8318491B2, “Method of differentiating hematopoietic stem cells into natural killer cells using YC-1 or IL-21” (Korea Research Institute of Bioscience and Biotechnology, priority 2007, dated 2012).

Experiments:
[1] = system: NK cells; assay: 51Cr release assay of the killing activity of differentiated mature NK cells; format: cell-based, human; conditions: cultured in the presence of IL-15
Experimental: (§1) To investigate the effect on NK cell differentiation of IL-21 known to promote differentiation and increase activity, IL-21 (20 ng/ml, PeproTech, USA) was treated during the process of differentiation from hematopoietic stem cells of cord blood into mature NK cells (mNK) through NK precursor cells (pNK). The cells were cultured in the presence of IL-15, followed by FACS analysis and ^51Cr release assay.
To investigate the effect on NK cell differentiation of YC-1 [3-(5′-hydroxymethyl-2′-furyl)-1-benzylindazole, formula 1] known as an anticancer agent functioning in suppressing HIF-1α activity to inhibit tumor cell growth, YC-1 (1 uM, Sigma) was treated during the process of differentiation from hematopoietic stem cells of cord blood into mature NK cells (mNK) through NK precursor cells (pNK). The cells were cultured in the presence of IL-15, followed by FACS analysis and ^51Cr release assay.

[2] = system: hematopoietic stem cells of cord blood / NK precursor cells (pNK); assay: FACS analysis of CD56+ NK cell population during differentiation of cord blood hematopoietic stem cells into mature NK cells via NK precursor cells; format: cell-based, human; conditions: for NK cells (FACS analysis): in the presence of IL-15, FIGS. 10 and 11; for CD56+ NK cell population: cultured in the presence of IL-15, vs IL-15 alone
Experimental: Cord blood provided from Department of Obstetric & Gynecology, Konyang University Hospital, Taejon, Korea, for the purpose of study only was diluted in RPMI 1640 (GIBCO-BRL, USA) at the ratio of 2:1. The prepared cord blood was loaded on the upper part of Ficoll-Paque (Sigma, USA), followed by centrifugation ([…], 30 minutes) to separate mononuclear cells (MNC). Erythrocytes were eliminated from the obtained cells and the obtained mononuclear cells were marked with the hematopoietic stem cell marker ‘CD34 microbeads’. Then, CD34+ cells were separated by MS/RS column and MACS (Magnetic Activated Cell Sorter). The purity of the obtained CD34+ hematopoietic stem cells (referred as “HSC cells” hereinafter) was measured by FACS (BD Bioscience, Mountainview, Calif.), which was 92% (FIG. 1).
The HSC cells separated from cord blood in Example 1 were inoculated in a 12-well plate (Falcon, USA) containing the Myelocult complete medium (Stem cell Technology, CA) supplemented with 30 ng/ml of human […] (PeproTech, USA), 50 ng/ml of human Flt3L (FMS-like tyrosine kinase 3 ligand, PeproTech, USA), 5 ng/ml of human IL-7 (PeproTech, USA), and 10^−6 M of […] at the concentration of 1×10^6 cells/well, followed by culture for 14 days in a 37° C., 5% CO2 incubator. Three days later, half of the supernatant was replaced with a fresh medium containing cytokines having the same composition as the above. For the differentiation into mature NK cells (referred as “NK cells” hereinafter), HSC cells were recovered 14 days later and cultured again for 14 days in the presence of human IL-15 (30 ng/ml, PeproTech, USA). Three days later, half of the medium was replaced with a fresh medium containing cytokines having the same composition as the above. (FIG. 2). On the 28th day of culture, the purity of NK cells was measured by using anti-CD56 antibody and the expression of NK cell receptor was measured by flow cytometry (FACS) (FIG. 3).
as §1
To investigate the effect on NK cell differentiation of YC-1 [3-(5′-hydroxymethyl-2′-furyl)-1-benzylindazole, formula 1] known as an anticancer agent functioning in suppressing HIF-1α activity to inhibit tumor cell growth, YC-1 (1 uM, Sigma) was treated during the process of differentiation from hematopoietic stem cells of cord blood into mature NK cells (mNK) through NK precursor cells (pNK). […]

Compound | killing activity of NK cells ([1]; YC-1 1 uM, E:T 5:1, FIG. 9) | NK cells (FACS analysis) ([2]; YC-1 0.5 uM alone (low concentration)) | CD56+ NK cell population ([2]; YC-1 1 uM treated to pNK, FIGS. 7 and 8) | killing activity of NK cells ([1]; IL-21 20 ng/ml, E:T 2.5:1, FIG. 6) | NK cells (FACS analysis) ([2]; IL-21 10 ng/ml alone (low concentration)) | CD56+ NK cell population ([2]; IL-21 20 ng/ml treated to pNK, FIGS. 4 and 5)
OCc1ccc(-c2nn(Cc3ccccc3)c3ccccc23)o1 [YC-1, 3-(5′-hydroxymethyl-2′-furyl)-1-benzylindazole] | increased | slightly increased | increased | – | – | –
IL-21: cytokine secreted by activated CD4+ T cells; amino acid sequence represented by SEQ. ID. NO: 1 (PeproTech) | – | – | – | increased | slightly increased | increased
